Patent US20240247080A1, “GLP1/GIP/NPY2 RECEPTOR TRIPLE AGONISTS” (Boehringer Ingelheim International GmbH, priority 2022, published 2024)
Read-outs that look alike come from different tables or passages of the source. Starred links: 1 amine or outer side, 2 acyl side, 3 side chain; linkers in the order of their positions; H or OH if unused. Non-standard residues stand in square brackets, D forms with d. Groups on a side chain read outwards from the residue. *: point of attachment. C18 diacid = O=C(O)CCCCCCCCCCCCCCCCC(=O)*; γGlu = O=C(O)[C@H](CCC(=O)[*:2])N[*:1]; AEEA = NCCOCCOCC(=O)O; Aib = CC(C)(N)C(=O)O

Tests used:
hGLP1R = target: T1, hGLP1R (Homo sapiens, UniProt P43220); experiment: hGLP1R CreLuc reporter gene assay in 0.5% and 100% plasma; format: cell-based; details: CreLuc reporter gene assay, 0.5% human plasma; read-out: hGLP1R 0.5% hP
T1 construct: expressed in transfected cells; host or cells: HEK-293 cells carrying a CRE-luciferase reporter gene
Method in brief: (§1)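 HEK-293 cells co-expressing GLP-1 or NPY2 receptor and CHO cells expressing GIP receptor, each carrying a CRE-driven luciferase reporter, were stimulated with peptides for 4 hours at 37 °C. Luminescence was read after Bright-Glo addition. EC50 came from 8-point, four-decade curves fitted by variable-slope non-linear regression.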

hNPY2R = target: T2, hNPY2R (Homo sapiens, UniProt P49146); experiment: hNPY2R CreLuc reporter gene assay in 0.5% and 100% plasma; format: cell-based; details: CreLuc reporter gene assay
T2 construct: expressed in transfected cells; host or cells: HEK-293 cells carrying a CRE-luciferase reporter gene
T2 sequence (P49146 1-381): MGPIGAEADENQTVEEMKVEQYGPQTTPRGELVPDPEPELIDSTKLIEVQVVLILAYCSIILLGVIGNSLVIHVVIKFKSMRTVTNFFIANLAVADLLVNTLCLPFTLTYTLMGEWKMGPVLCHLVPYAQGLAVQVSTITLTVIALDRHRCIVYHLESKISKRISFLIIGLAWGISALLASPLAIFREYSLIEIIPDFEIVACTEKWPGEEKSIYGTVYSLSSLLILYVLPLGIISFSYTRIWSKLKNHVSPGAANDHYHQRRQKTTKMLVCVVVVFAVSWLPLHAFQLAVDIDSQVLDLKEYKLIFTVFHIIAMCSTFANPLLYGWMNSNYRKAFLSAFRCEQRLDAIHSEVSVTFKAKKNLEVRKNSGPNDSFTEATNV
Method in brief: as §1

hGIPR = target: T3, hGIPR (Homo sapiens, UniProt P48546); experiment: hGIPR CreLuc reporter gene assay in 0.5% and 100% plasma; format: cell-based; details: CreLuc reporter gene assay
T3 construct: expressed in transfected cells; host or cells: CHO cells carrying a CRE-luciferase reporter gene
T3 sequence (P48546 22-466): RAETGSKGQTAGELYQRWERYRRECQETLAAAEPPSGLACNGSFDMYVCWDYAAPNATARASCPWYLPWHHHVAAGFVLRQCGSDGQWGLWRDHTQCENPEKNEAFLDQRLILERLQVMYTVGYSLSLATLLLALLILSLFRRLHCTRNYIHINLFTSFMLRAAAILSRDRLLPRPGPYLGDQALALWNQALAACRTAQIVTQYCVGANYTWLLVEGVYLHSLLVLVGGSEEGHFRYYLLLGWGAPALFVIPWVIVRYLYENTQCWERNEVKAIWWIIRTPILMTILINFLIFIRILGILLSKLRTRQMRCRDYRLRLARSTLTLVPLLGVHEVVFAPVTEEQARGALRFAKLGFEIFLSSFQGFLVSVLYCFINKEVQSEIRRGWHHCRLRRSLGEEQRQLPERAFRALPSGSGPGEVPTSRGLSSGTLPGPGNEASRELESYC
Method in brief: as §1

[1] = Mouse PK after intravenous application; format: in vivo; details: plasma, mean residence time, intravenous 30-60 nmol/kg, male NMRI mice
Method in brief: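 Male NMRI mice (30–40 g) received 30-60 nmol/kg peptide by tail-vein injection, dissolved in 50 mM phosphate buffer (pH 7.4)/3.5% mannitol. Saphenous blood was sampled up to 56 hours post-dose and EDTA plasma analysed by LC-MS. PK parameters came from non-compartmental analysis.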

[2] = Effect on acute food intake in normal NMRI mice; format: in vivo; details: 30 nmol/kg subcutaneously once, normalized to vehicle group, male NMRI mice
Protocol: Example 4: Effect on Acute Food Intake in Normal NMRI Mice
Male NMRI mice were obtained from Janvier (Janvier Labs, France) or from Charles River (Charles River Research Models & Services Germany GmbH) at the age of 3 weeks. The animals get a microchip (Datamars, Slim Microchip T-SL) for individual identification after delivery. They were housed with 4 mice per cage under a 12/12 dark-light cycle, light off at 3 p.m. Room temperature was controlled to 21° C. +/−1° C. and humidity 60%+/−20%. Mice had ad libitum access to regular rodent chow (KLIBA Nafag 3040 or Altromin 1324, Brogaarden, Denmark) and tap water.
Latest transfer into the HM2-System of MBRose, Denmark (real-time monitoring system of food- and water intake) of the animals 5 days before study start, to allow acclimatization to experimental conditions. As the animals were uniquely identified with the microchips, each individual animal was identified by its own microchip upon entry and exit from the food channel via antennae. Randomization of the mice for each study group (n=8; age earliest 6 weeks old) was based on food intake (middle of last three days 24 h-Intervall) and bodyweight directly before start of the study. A vehicle treated (50 mM phosphate buffer pH7.4 with 3.5% Mannitol) group was included in each experiment. To have the same nutrition standard for each animal the food access was locked eight hours before dark phase. One hour before night, the animals were once treated subcutaneously with the test peptide. Food intake was reported hourly for a period of 24 h.

[3] = 0.5% human plasma, read-out: hGIPR 0.5% hP
[4] = 100% human plasma, read-out: hGIPR 100% hP

T1 sequence (P43220 24-463): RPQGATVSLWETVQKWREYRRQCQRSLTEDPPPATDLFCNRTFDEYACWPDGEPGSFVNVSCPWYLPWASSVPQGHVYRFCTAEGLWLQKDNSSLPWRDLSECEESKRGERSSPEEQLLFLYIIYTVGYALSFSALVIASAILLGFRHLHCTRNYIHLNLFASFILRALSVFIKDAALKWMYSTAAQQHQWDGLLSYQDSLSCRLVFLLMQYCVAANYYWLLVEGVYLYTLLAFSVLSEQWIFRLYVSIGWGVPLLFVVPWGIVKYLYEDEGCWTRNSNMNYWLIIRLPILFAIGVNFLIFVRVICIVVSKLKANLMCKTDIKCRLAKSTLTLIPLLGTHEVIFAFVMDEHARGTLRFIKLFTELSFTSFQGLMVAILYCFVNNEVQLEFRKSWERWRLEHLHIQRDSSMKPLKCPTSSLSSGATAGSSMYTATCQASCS

Row | EC50 (hGLP1R) [pM] | EC50 (hNPY2R; 100% human plasma, read-out: hNPY2R 100% hP) [pM] | EC50 (hGIPR; [3]) [pM] | EC50 (hGIPR; [4]) [pM] | MRT [1] [h] | EC50 (hNPY2R; 0.5% human plasma, read-out: hNPY2R 0.5% hP) [pM] | Compound | Acute Food Intake 24 h 30 nmol/kg [% CTL] [2] [% CTL]
1 | 100 | 23000 | 390 | 790 | 8.5 |  | CC[C@H](C)[C@H](NC(=O)[C@H](CC(C)C)NC(=O)[C@H](Cc1c[nH]c2ccccc12)NC(=O)[C@H](CCC(N)=O)NC(=O)[C@@H](NC(=O)[C@H](Cc1ccccc1)NC(=O)[C@H](C)NC(=O)C(C)(C)NC(=O)[C@H](CCC(N)=O)NC(=O)[C@H](C)NC(=O)[C@H](CCC(N)=O)NC(=O)[C@H](CCCCN)NC(=O)[C@H](CCC(=O)O)NC(=O)[C@H](CC(C)C)NC(=O)C(C)(C)NC(=O)[C@@H](NC(=O)[C@H](CO)NC(=O)[C@H](Cc1ccc(O)cc1)NC(=O)[C@H](CC(=O)O)NC(=O)[C@H](CO)NC(=O)[C@@H](NC(=O)[C@H](Cc1ccccc1)NC(=O)[C@@H](NC(=O)CNC(=O)[C@H](CCC(=O)O)NC(=O)C(C)(C)NC(=O)[C@@H](N)Cc1ccc(O)cc1)[C@@H](C)O)[C@@H](C)O)[C@@H](C)CC)C(C)C)C(=O)N[C@@H](CCCCNC(=O)[C@@H](N)CCCCNC(=O)CC[C@H](NC(=O)CC[C@H](NC(=O)CC[C@H](NC(=O)CC[C@H](NC(=O)CC[C@H](NC(=O)CC[C@H](NC(=O)CCCCCCCCCCCCCCCCC(=O)O)C(=O)O)C(=O)O)C(=O)O)C(=O)O)C(=O)O)C(=O)O)C(=O)NCC(=O)NCC(=O)N1CCC[C@H]1C(=O)N[C@@H](CO)C(=O)N[C@@H](CCC(=O)O)C(=O)NCC(=O)N[C@@H](C)C(=O)N[C@@H](CO)C(=O)N[C@@H](CC(C)C)C(=O)N[C@@H](CCCNC(=N)N)C(=O)N[C@@H](Cc1c[nH]cn1)C(=O)N[C@@H](Cc1ccc(O)cc1)C(=O)N[C@@H](Cc1ccc(O)cc1)C(=O)N[C@@H](CC(N)=O)C(=O)N[C@@H](Cc1c[nH]c2ccccc12)C(=O)N[C@@H](CC(C)C)C(=O)N[C@H](C(=O)N[C@@H](CCCNC(=N)N)C(=O)N[C@@H](CCC(N)=O)C(=O)N[C@@H](CCCNC(=N)N)C(=O)N[C@@H](Cc1ccc(O)cc1)C(N)=O)[C@@H](C)O [Compound 265, Y-Aib-E-G-T-F-T-S-D-Y-S-I-Aib-L-E-K-Q-A-Q-Aib-A-F-V-Q-W-L-I-K(1,3)-GGPSEGASLRHYYNWLTRQRY-NH2.C18DA-gGlu-gGlu-gGlu-gGlu-gGlu-gGlu-eLys(1,2)] | 50
2 | 310 |  | 280 | 1230 | 8 | 12000 | H-Y[Aib]EGTFTSDYSI[Aib]LEKQAQ[Aib]EFVEWLIK([AEEA-AEEA-γGlu-γGlu-γGlu-γGlu-C18 diacid])GGPSSGASLRHYYNWLTRQRY-NH2 [Compound 145, Y-Aib-E-G-T-F-T-S-D-Y-S-I-Aib-L-E-K-Q-A-Q-Aib-E-F-V-E-W-L-I-K(1,3)-GGPSSGASLRHYYNWLTRQRY-NH2.C18DA-gGlu-gGlu-gGlu-gGlu-OEG-OEG(1,2)] | 43
